# Results: patent US20220110315A1, “SOLUTIONS AND METHODS FOR ORGAN PRESERVATION” (priority 2019, published 2022)
# Test system: isolated perfused rat hearts
# Assay: Isolated perfused rat heart (modified Langendorff) global ischemia/reperfusion injury
# Details: 5 μM for 5 min prior to 30 min global ischemia and for first 5 min of 45 min reperfusion; compared to untreated control I/R hearts; n=7
smiles,measurement,value
Oc1ccc2c3c1O[C@H]1c4[nH]c5ccccc5c4C[C@@]4(O)[C@@H](C2)N(CC2CC2)CC[C@]314 [naltrindole],infarct size (TTC staining at end of reperfusion),reduced infarct size
same,"post-reperfused cardiac function (+dP/dtmax, -dP/dtmin, LVDP, LVEDP)",significantly restored
